Here are results for six substances from patent publication US20260231994A1, “TASTE-ENHANCING COMPOSITION, METHOD FOR PRODUCING SAME, FOOD PRODUCT, AND METHOD FOR ENHANCING TASTE OF FOOD PRODUCT” (HOUSE FOODS GROUP INC., priority 2023, published 2026).

Common to all, as to format: in vivo
The nature of test [1]: Experiment 6 sensory evaluation of cyclic dipeptides, “top sharp saltiness”. In short, it runs like this: (§1)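 Reduced-sodium curry roux (44 g in 300 g hot water) was spiked with cyclic dipeptide solutions matching heat-treated coriander or paprika levels, at 0.5% or 1.0% (w/w) final. Three evaluators scored each sample against unspiked reduced-sodium and common roux. Mean scores were graded F to AA.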

Test [2] in a line: Experiment 1 sensory evaluation of “boosting of flavor” (cyclic dipeptides, coriander). The conditions noted are these: for “boosting of flavor” Average: cyclic dipeptide aqueous solution (concentration as in heat-treated coriander) at final 0.2% (w/w) in reduced-sodium curry roux dispersion, score 1-5; for “boosting of flavor” Evaluation: cyclic dipeptide aqueous solution at final 0.2% (w/w) in reduced-sodium curry roux dispersion, class of average score; for “boosting of flavor” in words: added to reduced-sodium curry roux dispersion, compared with no addition, unheated coriander or common curry roux. Here is the method: Flour roux was prepared by putting 20 g of flour and 30 g of beef tallow in a pan, then heating with stirring at 120° C. To this flour roux were added 10 g of sodium chloride, 10 g of sugar, 10 g of cornstarch, 5 g of curry powder and 15 g of other seasoning ingredients (vegetable and fruit extracts, yeast extract and seafood extract), and after heat-treatment to 105° C., the mixture was cooled and solidified, to form a block of common curry roux.
The sodium chloride equivalent per 100 g of this curry roux was 10.6 g.
Reduced-sodium curry roux was prepared according to the same procedure, except that the amount of sodium chloride was reduced to 7 g from the amount in the common curry roux in (1).
The sodium chloride equivalent per 100 g of this reduced-sodium curry roux was 7.7 g.
Out of the cyclic dipeptides included in the heat-treated coriander prepared in 1.1. described above, which were confirmed to be increased in 1.2. above, an aqueous solution of the respective 14 cyclic dipeptides shown in the table described below was prepared. The concentration of the cyclic dipeptide in each aqueous solution was set to be equal to its concentration in the heat-treated coriander prepared in 1.1. described above, which was estimated from the ratio of the peak area of the cyclic dipeptide to the peak area of the internal standard (47 μg/g L-lysine-^13C6 monohydrochloride) confirmed in 1.2. described above.
Two dispersions of 44 g of the reduced-sodium curry roux in (2) dispersed in 300 g of hot water were prepared.
To one of them was added the heat-treated coriander or the powdered unheated coriander prepared in 1.1. described above, or the cyclic dipeptide aqueous solution (corresponding to the heat-treated coriander) prepared in (3) above, so that the final concentration was 0.2% (w/w), and a sensory evaluation was carried out.
Forty-four grams of the common curry roux in (1) was dispersed in 300 g of hot water.
The dispersion of reduced-sodium curry roux dispersed in hot water and the dispersion of common curry roux dispersed in hot water were used as comparative controls, and the strength of the flavor was evaluated by four evaluators on the basis of the following evaluation criteria from the viewpoint of “boosting of flavor.” The term “boosting of flavor” in this experiment is an effect concerted by the combination of sodium chloride and other foodstuffs in curry roux, and is an aspect of “saltiness.” Thus, the “flavor” in this experiment can be also expressed as “saltiness.”
The average of the evaluated scores was defined as “F” when it was 1.0 or lower, “C” when it was 1.1 or higher and 1.9 or lower, “B” when it was 2.0 or higher and 2.5 or lower, “A” when it was 2.6 or higher and 2.9 or lower, and “AA” when it was 3.0 or higher.

Test [3] can be described thus: Experiment 6 sensory evaluation of cyclic dipeptides, “boosting of last flavor (aftertaste)”. In short, it runs like this: as §1
The nature of test [4]: Experiment 6 sensory evaluation of cyclic dipeptides, “middle fullness (enhanced thickness)”. An outline of the steps: as §1
[5] abbreviates: Additive amount paprika 0.5% (heat-treated paprika equivalent aqueous solution, final 0.5% (w/w)), reduced-sodium curry roux.
[6] abbreviates: Additive amount paprika 0.5%, reduced-sodium curry roux.
[7] abbreviates: heat-treated paprika equivalent aqueous solution of cyclic dipeptide, final 1.0% (w/w) in reduced-sodium curry roux dispersion.
Where [8] appears, read: heat-treated paprika equivalent aqueous solution of cyclic dipeptide, final 1.0% (w/w) in reduced-sodium curry roux dispersion, 3 evaluators.
Where [9] appears, read: Additive amount coriander 0.5% (heat-treated coriander equivalent aqueous solution, final 0.5% (w/w)), reduced-sodium curry roux.
Where [10] appears, read: Additive amount coriander 0.5%, reduced-sodium curry roux.
Where [11] appears, read: heat-treated coriander equivalent aqueous solution of cyclic dipeptide, final 1.0% (w/w) in reduced-sodium curry roux dispersion.
Where [12] appears, read: heat-treated coriander equivalent aqueous solution of cyclic dipeptide, final 1.0% (w/w) in reduced-sodium curry roux dispersion, 3 evaluators.

Turning to cyclic (Ala-Pro) [Coriander ID 23], the results for the “Top sharp saltiness Average” value in test [1] (setting [5]) and in test [1] (setting [8]) were 2.3 points and 2.7 points, respectively. The “Top sharp saltiness Evaluation” value in test [1] (setting [6]) is “B (“B” when it was 2.0 or higher and 2.5 or lower)”; in test [1] (setting [7]), “A (“A” when it was 2.6 or higher and 2.9 or lower)”. Besides, the ““boosting of flavor” Average” value in test [2] came out at 2.0 points. In test [2], the ““boosting of flavor” Evaluation” value was “B (“B” when it was 2.0 or higher and 2.5 or lower)”. In addition, the “Bosting of last flavor Average” value is 2.2 points in test [3] (setting [6]) and 3.0 points in test [3] (setting [8]). Besides, the “Bosting of last flavor Evaluation” value in test [3] (setting [6]) was “B (“B” when it was 2.0 or higher and 2.5 or lower)”; in test [3] (setting [7]), “AA (“AA” when it was 3.0 or higher)”. Besides, the “Middle fullness Average” value in test [4] (setting [6]) came out at 2.2 points; in test [4] (setting [8]) it was 3.0 points. Moreover, the “Middle fullness Evaluation” value in test [4] (setting [6]) is “B (“B” when it was 2.0 or higher and 2.5 or lower)”; in test [4] (setting [7]) it was “AA (“AA” when it was 3.0 or higher)”.

Turning to cyclic (Gly-Val) [Coriander ID 21], the “Top sharp saltiness Average” value in test [1] (setting [5]) was 2.3 points; in test [1] (setting [8]), 1.7 points. Also, the “Top sharp saltiness Evaluation” value in test [1] (setting [6]) is “B (“B” when it was 2.0 or higher and 2.5 or lower)”; in test [1] (setting [7]) it was “C (“C” when it was 1.1 or higher and 1.9 or lower)”. For the same substance, the ““boosting of flavor” Average” value in test [2] is on record as 2.3 points. The ““boosting of flavor” Evaluation” value in test [2] is “B (“B” when it was 2.0 or higher and 2.5 or lower)”. Further, the “Bosting of last flavor Average” value in test [3] (setting [6]) is recorded as 2.5 points; in test [3] (setting [8]) it was 2.2 points. In addition, the “Bosting of last flavor Evaluation” value is “B (“B” when it was 2.0 or higher and 2.5 or lower)” in test [3] (setting [6]); “B (“B” when it was 2.0 or higher and 2.5 or lower)” in test [3] (setting [7]). For the same substance, the “Middle fullness Average” value in test [4] (setting [6]) is 2.3 points; in test [4] (setting [8]) it was 2.0 points. In addition, the “Middle fullness Evaluation” value in test [4] (setting [6]) was “B (“B” when it was 2.0 or higher and 2.5 or lower)”; in test [4] (setting [7]) it was “B (“B” when it was 2.0 or higher and 2.5 or lower)”.

Turning to cyclic (Ala-Val) [Coriander ID 27], the “Top sharp saltiness Average” value was 2.3 points in test [1] (setting [9]) and 2.5 points in test [1] (setting [12]). Also, the “Top sharp saltiness Evaluation” value in test [1] (setting [10]) was “B (“B” when it was 2.0 or higher and 2.5 or lower)”; in test [1] (setting [11]), “B (“B” when it was 2.0 or higher and 2.5 or lower)”. For the same substance, the ““boosting of flavor” in words” value in test [2] is on record as “comparable flavor to that of the dispersion of common curry roux”. The ““boosting of flavor” Average” value in test [2] is 3.0 points. In addition, the ““boosting of flavor” Evaluation” value in test [2] was “AA (“AA” when it was 3.0 or higher)”. The “Bosting of last flavor Average” value in test [3] (setting [10]) worked out at 2.3 points; in test [3] (setting [12]) it was 2.7 points. Besides, the “Bosting of last flavor Evaluation” value in test [3] (setting [10]) was “B (“B” when it was 2.0 or higher and 2.5 or lower)”; in test [3] (setting [11]), “A (“A” when it was 2.6 or higher and 2.9 or lower)”. Further, the “Middle fullness Average” value was determined as 2.2 points in test [4] (setting [10]) and 3.0 points in test [4] (setting [12]). Further, the “Middle fullness Evaluation” value in test [4] (setting [10]) was “B (“B” when it was 2.0 or higher and 2.5 or lower)”; in test [4] (setting [11]) it was “AA (“AA” when it was 3.0 or higher)”.

For the substance cyclic (Pro-His) [Coriander ID 15], the “Top sharp saltiness Average” value amounted to 2.2 points in test [1] (setting [9]) and 2.0 points in test [1] (setting [12]). The “Top sharp saltiness Evaluation” value in test [1] (setting [10]) was “B (“B” when it was 2.0 or higher and 2.5 or lower)”; in test [1] (setting [11]), “B (“B” when it was 2.0 or higher and 2.5 or lower)”. For the same substance, in test [2], the ““boosting of flavor” in words” value is “comparable flavor to that of the dispersion of common curry roux”. The ““boosting of flavor” Average” value in test [2] is listed as 3.0 points. In addition, the ““boosting of flavor” Evaluation” value in test [2] is “AA (“AA” when it was 3.0 or higher)”. Also, the “Bosting of last flavor Average” value in test [3] (setting [10]) came out at 2.5 points; in test [3] (setting [12]), 3.0 points. Besides, the “Bosting of last flavor Evaluation” value is “B (“B” when it was 2.0 or higher and 2.5 or lower)” in test [3] (setting [10]); “AA (“AA” when it was 3.0 or higher)” in test [3] (setting [11]). For the same substance, the “Middle fullness Average” value is on record as 2.5 points in test [4] (setting [10]) and 3.0 points in test [4] (setting [12]). Also, the “Middle fullness Evaluation” value in test [4] (setting [10]) was “B (“B” when it was 2.0 or higher and 2.5 or lower)”; in test [4] (setting [11]), “AA (“AA” when it was 3.0 or higher)”.

In the case of cyclic (Thr-Pro) [Coriander ID 14], the “Top sharp saltiness Average” value in test [1] (setting [5]) was determined as 2.2 points; in test [1] (setting [8]), 2.0 points. Moreover, the “Top sharp saltiness Evaluation” value in test [1] (setting [6]) was “B (“B” when it was 2.0 or higher and 2.5 or lower)”; in test [1] (setting [7]), “B (“B” when it was 2.0 or higher and 2.5 or lower)”. The ““boosting of flavor” in words” value in test [2] is recorded as “comparable flavor to that of the dispersion of common curry roux”. The ““boosting of flavor” Average” value in test [2] was determined as 3.3 points. Further, in test [2], the ““boosting of flavor” Evaluation” value is “AA (“AA” when it was 3.0 or higher)”. Also, the “Bosting of last flavor Average” value stood at 2.2 points in test [3] (setting [6]) and 2.5 points in test [3] (setting [8]). Moreover, the “Bosting of last flavor Evaluation” value in test [3] (setting [6]) was “B (“B” when it was 2.0 or higher and 2.5 or lower)”; in test [3] (setting [7]) it was “B (“B” when it was 2.0 or higher and 2.5 or lower)”. Further, the figures for the “Middle fullness Average” value in test [4] (setting [6]) and in test [4] (setting [8]) were 2.0 points and 2.5 points, respectively. Besides, the “Middle fullness Evaluation” value in test [4] (setting [6]) was “B (“B” when it was 2.0 or higher and 2.5 or lower)”; in test [4] (setting [7]), “B (“B” when it was 2.0 or higher and 2.5 or lower)”.

Turning to cyclic (Leu/Ile-Val) [Coriander ID 42], the “Top sharp saltiness Average” value in test [1] (setting [9]) is 2.5 points; in test [1] (setting [12]), 2.0 points. Also, the “Top sharp saltiness Evaluation” value was “B (“B” when it was 2.0 or higher and 2.5 or lower)” in test [1] (setting [10]); “B (“B” when it was 2.0 or higher and 2.5 or lower)” in test [1] (setting [11]). Also, the ““boosting of flavor” Average” value in test [2] came to 2.0 points. In test [2], the ““boosting of flavor” Evaluation” value was “B (“B” when it was 2.0 or higher and 2.5 or lower)”. Also, the entries for the “Bosting of last flavor Average” value in test [3] (setting [10]) and in test [3] (setting [12]) were 3.0 points and 2.7 points, respectively. For the same substance, the “Bosting of last flavor Evaluation” value in test [3] (setting [10]) is “AA (“AA” when it was 3.0 or higher)”; in test [3] (setting [11]), “A (“A” when it was 2.6 or higher and 2.9 or lower)”. Further, the “Middle fullness Average” value in test [4] (setting [10]) was 2.8 points; in test [4] (setting [12]), 2.7 points. For the same substance, the “Middle fullness Evaluation” value in test [4] (setting [10]) was “A (“A” when it was 2.6 or higher and 2.9 or lower)”; in test [4] (setting [11]) it was “A (“A” when it was 2.6 or higher and 2.9 or lower)”.
